{"source": "patent US7115666B2", "about": "“Nitrone compounds, pharmaceutical compositions containing the same and methods for treating inflammation and neuropathic pain” (Renovis, Inc., priority 2002, dated 2006)", "key": {"[1]": {"tested_on": "chronic constriction injury (CCI) rat model of peripheral neuropathy", "test": "Cold allodynia assay in chronic constriction injury (CCI) rats", "type": "in vivo", "description": "The purpose of the following studies was to determine whether test compounds had analgesic activity in a chronic constriction injury (CCI) rat model of peripheral neuropathy. Neuropathic rats were treated with PBN, and other test compounds or 2.5% DMSO in 1.0% MC as a vehicle and tested in a cold allodynia assay to evaluate nociceptive responses.\nOne week prior to the cold allodynia assay, CCI rats were prepared as follows. Male Sprague Dawley rats (158–224 g) had their right sciatic nerve loosely ligated under aseptic conditions. To observe the cold allodynia response, their paw withdrawal latency response was determined by placing rats in a cold water bath (2–4° C., 2.5 cm deep). […] Rats rendered neuropathic in the right limb display an exaggerated withdrawal response on the neuropathic side (right rear limb). For the cold allodynia assay, two pre-dose latency times to cold were recorded. The end point was an exaggerated removal of the paw from the water. […] The remaining rats were divided into treatment groups. Two separate latency times were obtained for each rat before the dose of each drug. In the first study shown in FIG. 1, rats were then dosed with Compound 1 (30 mg/kg, po) or PBN (100 mg/kg, po) as a suspension in Veh, or Veh alone (1 ml/kg, po). In the second study shown as FIG. 2, three different doses of Compound 1 (10, 30, 100 mg/kg, po) were administered to CCI rats. In both studies, latency to withdraw the ligated leg up above water level was recorded using an electronic timer. The tester was blinded to the animal's treatment group at the time of testing.\nMaximum time of latency in any trial was 20 sec. Statistical significance was assessed for paired groups (pre-dose vs. post-dose) using a Wilcoxon test and between non-paired groups using a Kruskal-Wallis with a Dunn's test post-hoc. A probability value of p<0.05 was identified as statistically significant."}, "[2]": {"tested_on": "collagen footpad edema in rats", "test": "Collagen arthritis assay", "type": "in vivo, rat", "conditions": "for paw volume differences after treatment: FIG. 3; for activity in rat collagen model: dose not stated (Assay Results summary)", "description": "This assay is commonly used to screen and evaluate anti-inflammatory drug candidates. See, for example, Larsson et al., Arthritis & Rheumatism, 33:693–701, 1990 and references cited therein.\nFor these experiments, Female DA rats (7–8 weeks of age) were immunized with Type II collagen derived from bovine nasal septum as described in Cremer et al., J. of Immunology, 149:1045–1053, 1992. The collagen was dissolved and administered with incomplete Freund's adjuvant. Standard precautions were taken to avoid denaturing the collagen before its administration such as keeping the solution cold during preparation. Rats were immunized in the base of the tail on day 0. Dosing began on day 10 with rat paws weighed and volumes taken on day 21. The arthritis was evaluated by comparing paw weights and/or paw volumes at day 21. Compounds reducing paw weight or paw volumes by at least about 30% compared to the controls were also considered effective in this assay."}, "[3]": {"tested_on": "Taxol-induced neuropathic pain model in mice", "test": "Taxol-induced neuropathic pain model, mechanical allodynia (von Frey filament)", "type": "in vivo", "from_the_text": "Taxol is a chemotherapeutic reagent for treatment of cancer patients. Cancer patients under Taxol chemotherapy can develop neuropathic pain, with a symptom of severe mechanical allodynia, so that a light touch (non-noxious stimulus in a normal condition) becomes painful. […] Recent studies have shown that Taxol is involved in TNF-alpha release in microglia cells. As one of the clinically relevant models, Taxol-induced neuropathic pain was developed in mice and rats. It is believed that small-diameter high threshold nociceptive C-fibers in the peripheral sensory nervous systems are largely, if not exclusively, affected in the Taxol-induced neuropathic pain models.\nIn this series of experiments, five-week old, male C57B1/6 mice were purchased from Charles River and housed at the Renovis animal facility in South San Francisco. Mice were trained for one week in an enclosure made of Plexiglas with dimensions of 2 in×2.5 in×3.5 in (W, H, and L) with a meshed metal support. The baseline of response to mechanical stimulus was measured using a von Frey Filament (0.6 g=3.84 mN). Normally, the baseline response is between 0 to 40%.\nTaxol was dissolved (1 mg/ml) in 50% Cremophor EL and 50% alcohol, and freshly diluted with saline to the final concentration of 0.2 mg/ml in 10% Cremophor EL, 10% alcohol. Mice were administered Taxol at 1 mg/kg of body weight, via i.p. daily, while the animals of the control group received vehicle (10% Cremophor EL and 10% alcohol in saline).\nAnimals receiving this daily dose of Taxol will develop neuropathic pain. The mechanical allodynia was measured at day 7, 8, or 14 after Taxol administration.\nA quantity of 200 mg of compound 14 (Example 14) was dissolved in 0.4 ml of 100% DMSO to yield a concentration of 500 mg/ml, and was kept at 4° C. until use. Methylcellulose was dissolved in deionized-distilled water to yield a concentration of 1%. The freshly prepared meythlcellulose was used to make a suspension of the compound, 10 mg of compound in 2.5% DMSO (V/V) and 1% methylcellulose. The suspension was sonicated for 6 min with a 5 second interval every 30 seconds before administration to animals.\nA quantity of 50 mg/kg (body weight) compound or vehicle (2.5% DMSO and 1% methylcellulose), 100 μl/20 g (body weight) was given to animals via gavage feeding procedure in a randomized, blinded fashion. The animals were then placed in the enclosure for assay. Mechanical allodynia was measured with von Frey filament (0.6 g=[…]) at various times after administration.\nReferring to FIG. 5, baseline in the group of animals was measured as 25+/−4% (n=24, ±SEM) before induction of neuropathic pain with Taxol (or sham treatment), where the response was measured with a von Frey filament (0.6 g=3.84 mN) as the percent of trials a withdrawal response is observed after probing with the filament. The higher the percentage, the greater the inferred pain.\nSixteen animals were treated with Taxol daily to induce neuropathic pain. Mechanical allodynia was assayed at day 8; average withdrawal response was measured as 81±5% (n=16, ±SEM). Sixteen animals were treated with matching vehicle to create sham animals. The Taxol and sham animals were then separated randomly into two groups of 8 animals each for drug vs. vehicle testing. Withdrawal responses to a von Frey filament probe were measured at 1, 6, 24, and 72 hours post-administration of drug or vehicle control, and averaged for each animal. […] Negative values reflect a reduction in inferred pain.\nFor mouse neuropathic pain studies, C57B1/6 strain, five-weeks old male mice were obtained from Charles River, San Diego, Calif. A total of 120 mice were used for the studies. 4 mice per cage were housed under standard conditions with 12-hour light and 12-hour dark cycles (in Renovis, Inc, South San Francisco facility). For rat neuropathic pain studies, male Sprague-Dawley rats, with body weights ranging from 180–200 grams, were obtained from Harlan. A total of 42 rats were used for this study. […]"}, "[4]": {"tested_on": "adjuvant-induced footpad edema in rats", "test": "Adjuvant assay (adjuvant-induced footpad edema)", "type": "in vivo, rat", "description": "This assay is a model for chronic inflammation. See, for example, B. M. Weichman, “Rat Adjuvant Arthritis: A Model of Chronic Inflammation,” Pharmacological Methods in the Control of Inflammation, 363–380 (1989) and references cited therein.\nIn this assay, Male Lewis rats weighing between 180–220 g were lightly anesthetized with an ip injection of 30 mg/kg of sodium pentobarbital (50 mg/ml). Desiccated Mycobacterium butyrium (Difco, 20 mg/ml) suspended in mineral oil was injected (50 μL) at both sides of the base of the tail under the skin. A line was tattooed on both rear paws at 5 mm above the angle of the ankle. The paw volumes, under the line, were measured by volume displacement using a plethysmometer (Ugo Basile) at the day of adjuvant injection (day 0) and on day 14. On day 14, animals with paw volumes equal to the mean of paw volumes ±SD were randomized into treatment groups. Rats which fell outside ±1 SD were not used in the experiment. One group received vehicle (1% methyl cellulose) by the po route and the other group received indomethacin (3 mg/kg suspended in 1% methyl cellulose). Dosing began on day 14, and continued until final assessment on day 21 post-adjuvant injection. […] This group has a slightly positive volume increase when paw volumes on day 21 are subtracted from day 0 values due to growth of the rat. […]"}, "[5]": {"conditions": "FIG. 2, 30 mg/kg, p.o., 90 min post-dose"}, "[6]": {"conditions": "FIG. 2, 100 mg/kg, p.o., 90 min post-dose"}, "[7]": {"conditions": "Taxol/mice, P.O., Single dosing, 50 Mg/Kg body weight"}, "[8]": {"conditions": "dose not stated (Assay Results summary)"}}, "note": "“Also recorded” adds a separate entry of the source.", "data": [{"smiles": "CC(C)(C)[N+]([O-])=CCCc1ccccc1", "note": "[Compound 1, N-tert-butyl-C-(2-phenylethyl)nitrone]", "values": [{"measurement": "activity in a model of painful peripheral neuropathy", "setting": "[1]; 10 mg/kg, po", "result": "significantly active"}, {"measurement": "post-dose latency score vs. vehicle", "setting": "[1]; FIG. 1, 30 mg/kg, p.o., 90 min post-dose, Kruskal-Wallis, Dunn's test", "result": "signficant post-dose latency score over vehicle"}, {"measurement": "latency to cold stimulus, post-dose vs. pre-dose score", "setting": "[1]; FIG. 1, 30 mg/kg, p.o., 90 min post-dose, Wilcoxon test", "result": "Significantly higher latency scores"}, {"measurement": "latency time, post-dose vs. pre-dose score", "setting": "[1]; FIG. 2, 10 mg/kg, p.o., 90 min post-dose", "result": "significantly increased latency time"}, {"measurement": "latency time, post-dose vs. pre-dose score", "setting": "[1]; [5]", "result": "significantly increased latency time"}, {"measurement": "post-dose latency score vs. vehicle", "setting": "[1]; [5]", "result": "significant post-dose latency score over vehicle"}, {"measurement": "latency time, post-dose vs. pre-dose score", "setting": "[1]; [6]", "result": "significantly increased latency time"}, {"measurement": "post-dose latency score vs. vehicle", "setting": "[1]; [6]", "result": "significant post-dose latency score over vehicle"}, {"measurement": "paw volume differences after treatment", "setting": "[2]; dose not stated", "result": "unexpected activity"}, {"measurement": "total gait scores as an index of pain", "setting": "[2]; FIG. 4, lowering indicates relief from pain", "result": "significant activity; also recorded: activity as an analgesic"}, {"measurement": "activity in rat collagen model", "setting": "[2]", "result": "significantly active"}, {"measurement": "time postdosing of analgesic effect", "setting": "[3]; 50 mg/kg single dose via oral gavage", "result": 1, "unit": "h"}, {"measurement": "effect on mechanical allodynia (Taxol-induced pain)", "setting": "[3]; 50 mg/kg single dose via oral gavage, von Frey filament 0.6 g, measured 1, 6, 24, up to 48 or 72 hours postdosing", "result": "analgesic effect"}, {"measurement": "Effective time Hour post dosing", "setting": "[3]; [7]", "result": "~1", "unit": "h"}, {"measurement": "extent of block of mechanical allodynia", "setting": "[3]; [7]", "result": "partial"}]}, {"smiles": "CCOc1ccc(CCC=[N+]([O-])C(C)(C)C)cc1", "note": "[Compound 7, N-tert-butyl-C-[2-(4-ethoxyphenyl)ethyl]nitrone]", "values": [{"measurement": "Effective time Hour post dosing", "setting": "[3]; [7]", "result": "None via p.o."}, {"measurement": "melting point", "result": "54 to 57", "unit": "°C"}]}, {"smiles": "COc1ccc(CCC=[N+]([O-])C(C)(C)C)cc1", "note": "[Compound 4, N-tert-butyl-C-[2-(4-methoxyphenyl)ethyl]nitrone]", "values": [{"measurement": "Effective time Hour post dosing", "setting": "[3]; [7]", "result": "None via p.o."}]}, {"smiles": "CCC(C=[N+]([O-])C(C)(C)C)c1ccc(C(C)(C)C)cc1", "note": "(stereo not drawn) [Compound 15, N-tert-butyl-C-[1-(4-tert-butylphenyl)propyl]nitrone]", "values": [{"measurement": "Effective time Hour post dosing", "setting": "[3]; [7]", "result": "None via p.o."}]}, {"smiles": "CC(C)(C)[N+]([O-])=CCCc1ccc(NS(=O)(=O)c2ccccc2)cc1", "note": "[Compound 10, N-tert-butyl-C-[2-(4-benzenesulfonamidophenyl)ethyl]nitrone]", "values": [{"measurement": "melting point", "result": 160, "unit": "°C"}]}, {"smiles": "CC(C)(C)c1cc(CCC=[N+]([O-])C(C)(C)C)cc(C(C)(C)C)c1O", "note": "[Compound 21]", "values": [{"measurement": "Effective time Hour post dosing", "setting": "[3]; [7]", "result": "None via p.o."}]}, {"smiles": "COc1ccc2c(c1)c(CC(=O)O)c(C)n2C(=O)c1ccc(Cl)cc1", "note": "[Indomethacin]", "values": [{"measurement": "paw volume as compared to vehicle controls", "setting": "[4]; 3 mg/kg, po, dosing day 14 to day 21 post-adjuvant", "result": "significantly reduced paw volume"}]}, {"smiles": "CC(C)Oc1ccc(CCC=[N+]([O-])C(C)(C)C)cc1", "note": "[Compound 6, N-tert-butyl-C-[2-(4-isopropoxyphenyl)ethyl]nitrone]", "values": [{"measurement": "Effective time Hour post dosing", "setting": "[3]; [7]", "result": "None via p.o."}]}, {"smiles": "COc1ccc(CC(C)C=[N+]([O-])C(C)(C)C)cc1", "note": "(stereo not drawn) [Compound 16, N-tert-butyl-C-[1–2-(4-methoxyphenyl)methylethyl]nitrone]", "values": [{"measurement": "Effective time Hour post dosing", "setting": "[3]; [7]", "result": "None via p.o."}]}, {"smiles": "CC(C)(C)[N+]([O-])=Cc1ccccc1", "note": "[PBN, N-tert-butyl phenyl nitrone, reference compound]", "values": [{"measurement": "activity in cold allodynia assay", "setting": "[1]; FIG. 1, 100 mg/kg, p.o., 90 min post-dose", "result": "completely inactive"}, {"measurement": "activity in the analgesic assay", "setting": "[1]; [8]", "result": "completely inactive"}, {"measurement": "activity in the adjuvant assay", "setting": "[4]; [8]", "result": "completely inactive"}, {"measurement": "paw volume differences after treatment", "setting": "[2]; 100 mg/kg", "result": "inactive"}, {"measurement": "activity in rat collagen model", "setting": "[2]", "result": "completely inactive"}]}, {"smiles": "[O-][N+](=CCCc1ccccc1)C1CCCCC1", "note": "[Compound 18, N-Cyclohexyl-C-(2-phenylethyl)nitrone]", "values": [{"measurement": "melting point", "result": 97.2, "unit": "°C"}]}]}
